Measured values published in the NIST ThermoML archive (doi:10.1021/je0501890).

Assay: xn = mol fraction of the nth substance listed
Conditions: 101.33 kPa, Liquid

CC(Cl)(Cl)Cl [1,1,1-trichloroethane] + CCCCCCCO
Conditions	mass density, 293.15 K [kg/m3]	mass density, 298.15 K [kg/m3]	mass density, 303.15 K [kg/m3]	viscosity, 293.15 K [mPa·s]	viscosity, 298.15 K [mPa·s]	viscosity, 303.15 K [mPa·s]
x2 = 0.103	1252.2	1244.75	1237.24	–	–	–
x2 = 0.1048	–	–	–	0.996	0.914	0.858
x2 = 0.1615	1214.95	1207.9	1200.8	–	–	–
x2 = 0.2027	–	–	–	1.224	1.11	1.014
x2 = 0.2047	1188.54	1181.77	1174.93	–	–	–
x2 = 0.2545	1159.2	1152.74	1146.2	–	–	–
x2 = 0.3034	–	–	–	1.529	1.379	1.245
x2 = 0.309	1128.37	1122.23	1116.01	–	–	–
x2 = 0.3514	1105.21	1099.32	1093.32	–	–	–
x2 = 0.3542	–	–	–	1.714	1.539	1.388
x2 = 0.398	–	–	–	1.895	1.699	1.526
x2 = 0.4022	1078.45	1072.77	1067.06	–	–	–
x2 = 0.5016	1028.73	1023.53	1018.27	–	–	–
x2 = 0.503	–	–	–	2.426	2.14	1.907
x2 = 0.5509	1005.32	1000.35	995.29	–	–	–
x2 = 0.5533	–	–	–	2.729	2.393	2.127
x2 = 0.58	991.84	986.98	982.04	–	–	–
x2 = 0.5993	–	–	–	3.043	2.664	2.353
x2 = 0.6573	957.28	952.71	948.09	–	–	–
x2 = 0.6724	950.85	946.34	941.77	–	–	–
x2 = 0.6811	–	–	–	3.69	3.196	2.791
x2 = 0.7416	–	–	–	4.217	3.629	3.141
x2 = 0.7421	921.42	917.17	912.86	–	–	–
x2 = 0.7937	900.46	896.37	892.23	–	–	–
x2 = 0.7956	–	–	–	4.783	4.09	3.495
x2 = 0.8459	879.86	875.95	871.97	–	–	–
x2 = 0.9003	–	–	–	5.912	5.018	4.297
x2 = 0.9027	858.15	854.41	850.61	–	–	–

ClC(Cl)C(Cl)Cl [1,1,2,2-tetrachloroethane] + CCCCCCCO
Conditions	mass density, 293.15 K [kg/m3]	mass density, 298.15 K [kg/m3]	mass density, 303.15 K [kg/m3]	viscosity, 293.15 K [mPa·s]	viscosity, 298.15 K [mPa·s]	viscosity, 303.15 K [mPa·s]
x2 = 0.0506	1541.06	1533.58	1526.03	–	–	–
x2 = 0.0997	–	–	–	1.852	1.69	1.547
x2 = 0.1031	1488.84	1481.6	1474.35	–	–	–
x2 = 0.1519	1442.21	1435.22	1428.22	–	–	–
x2 = 0.2003	1397.58	1390.83	1384.07	–	–	–
x2 = 0.2073	–	–	–	2.091	1.907	1.71
x2 = 0.2515	1351.89	1345.42	1338.9	–	–	–
x2 = 0.2998	1310.19	1303.92	1297.68	–	–	–
x2 = 0.3054	–	–	–	2.417	2.187	1.927
x2 = 0.3445	–	–	–	2.558	2.272	2.027
x2 = 0.3499	1268.42	1262.39	1256.35	–	–	–
x2 = 0.4085	–	–	–	2.833	2.506	2.225
x2 = 0.4109	1219.27	1213.55	1207.77	–	–	–
x2 = 0.4464	1191.47	1185.87	1180.31	–	–	–
x2 = 0.5042	–	–	–	3.341	2.908	2.555
x2 = 0.5113	1142.28	1136.96	1131.65	–	–	–
x2 = 0.5438	–	–	–	3.564	3.101	2.715
x2 = 0.5524	1112.04	1106.9	1101.73	–	–	–
x2 = 0.5988	–	–	–	3.924	3.392	2.962
x2 = 0.6013	1077.03	1072.05	1067.13	–	–	–
x2 = 0.6506	1042.68	1037.91	1033.17	–	–	–
x2 = 0.6937	–	–	–	4.654	3.992	3.429
x2 = 0.6959	1011.91	1007.34	1002.73	–	–	–
x2 = 0.7507	975.7	971.35	966.91	–	–	–
x2 = 0.753	–	–	–	5.166	4.389	3.763
x2 = 0.8001	943.88	939.68	935.48	–	–	–
x2 = 0.8007	–	–	–	5.595	4.737	4.035
x2 = 0.8505	912.27	908.25	904.23	–	–	–
x2 = 0.8971	–	–	–	6.506	5.365	4.627
x2 = 0.8979	883.17	879.34	875.45	–	–	–
x2 = 0.9513	851.1	847.45	843.75	–	–	–

CCCCCCCO [heptan-1-ol] + ClCCCl
Conditions	mass density, 293.15 K [kg/m3]	mass density, 298.15 K [kg/m3]	mass density, 303.15 K [kg/m3]	viscosity, 293.15 K [mPa·s]	viscosity, 298.15 K [mPa·s]	viscosity, 303.15 K [mPa·s]
x1 = 0.0502	1213.23	1206.24	1199.3	–	–	–
x1 = 0.1023	–	–	–	0.922	0.851	0.796
x1 = 0.1024	1175.9	1169.21	1162.55	–	–	–
x1 = 0.1493	1145.01	1138.62	1132.15	–	–	–
x1 = 0.2009	–	–	–	1.104	1.006	0.928
x1 = 0.2511	1085.65	1079.74	1073.87	–	–	–
x1 = 0.2957	–	–	–	1.342	1.215	1.105
x1 = 0.3445	1038.38	1032.88	1027.38	–	–	–
x1 = 0.3465	–	–	–	1.501	1.353	1.227
x1 = 0.3896	1017.38	1012.13	1006.83	–	–	–
x1 = 0.4198	1004.18	999.04	993.91	–	–	–
x1 = 0.455	989.42	984.4	979.35	–	–	–
x1 = 0.4616	–	–	–	1.939	1.732	1.546
x1 = 0.5017	970.85	966	961.14	–	–	–
x1 = 0.5035	–	–	–	2.139	1.901	1.699
x1 = 0.5437	–	–	–	2.355	2.079	1.844
x1 = 0.551	952.41	947.76	943.04	–	–	–
x1 = 0.5998	–	–	–	2.703	2.367	2.089
x1 = 0.6036	933.66	929.17	924.63	–	–	–
x1 = 0.6481	918.87	914.5	910.13	–	–	–
x1 = 0.6602	914.96	910.61	906.29	–	–	–
x1 = 0.6956	903.77	899.55	895.28	–	–	–
x1 = 0.6972	–	–	–	3.412	2.955	2.583
x1 = 0.7475	–	–	–	3.887	3.354	2.905
x1 = 0.748	887.98	883.88	879.79	–	–	–
x1 = 0.7974	873.84	869.91	865.91	–	–	–
x1 = 0.7978	–	–	–	4.397	3.773	3.253
x1 = 0.8548	858.28	854.47	850.61	–	–	–
x1 = 0.8862	–	–	–	5.474	4.65	3.979
x1 = 0.8898	849.21	845.44	841.7	–	–	–
x1 = 0.9489	834.67	831.05	827.43	–	–	–

ClC(Cl)=C(Cl)Cl [tetrachloroethene] + CCCCCCCO
Conditions	mass density, 293.15 K [kg/m3]	mass density, 298.15 K [kg/m3]	mass density, 303.15 K [kg/m3]	viscosity, 293.15 K [mPa·s]	viscosity, 298.15 K [mPa·s]	viscosity, 303.15 K [mPa·s]
x2 = 0.0564	1560.55	1552.56	1544.51	–	–	–
x2 = 0.098	1516.9	1509.2	1501.4	–	–	–
x2 = 0.1052	–	–	–	1.064	0.993	0.961
x2 = 0.152	1462.26	1454.91	1447.45	–	–	–
x2 = 0.2	–	–	–	1.285	1.186	1.116
x2 = 0.2001	1415.53	1408.42	1401.24	–	–	–
x2 = 0.248	1370.53	1363.81	1356.93	–	–	–
x2 = 0.2939	–	–	–	1.569	1.441	1.321
x2 = 0.2944	1328.47	1321.91	1315.32	–	–	–
x2 = 0.3527	1277.56	1271.32	1265.06	–	–	–
x2 = 0.3983	1239.09	1233.07	1227.04	–	–	–
x2 = 0.4073	–	–	–	2.024	1.83	1.661
x2 = 0.4484	1198.21	1192.43	1186.64	–	–	–
x2 = 0.4612	–	–	–	2.292	2.05	1.851
x2 = 0.4982	–	–	–	2.509	2.231	2.002
x2 = 0.5051	1153.53	1148.07	1142.54	–	–	–
x2 = 0.5477	1121.03	1115.76	1110.45	–	–	–
x2 = 0.55	–	–	–	2.827	2.501	2.222
x2 = 0.5992	–	–	–	3.169	2.798	2.462
x2 = 0.6002	1082.09	1077.06	1071.96	–	–	–
x2 = 0.6503	1046.14	1041.3	1036.45	–	–	–
x2 = 0.6926	–	–	–	3.922	3.397	2.958
x2 = 0.7419	983.09	978.66	974.19	–	–	–
x2 = 0.8016	943.84	939.63	935.38	–	–	–
x2 = 0.8034	–	–	–	4.966	4.249	3.631
x2 = 0.8533	910.96	906.93	902.87	–	–	–
x2 = 0.8578	–	–	–	5.52	4.704	4.03
x2 = 0.8961	–	–	–	5.942	5.052	4.324
x2 = 0.8963	884.26	880.43	876.54	–	–	–
x2 = 0.9453	854.68	851.01	847.3	–	–	–

ClC=C(Cl)Cl [trichloroethene] + CCCCCCCO
Conditions	mass density, 293.15 K [kg/m3]	mass density, 298.15 K [kg/m3]	mass density, 303.15 K [kg/m3]	viscosity, 293.15 K [mPa·s]	viscosity, 298.15 K [mPa·s]	viscosity, 303.15 K [mPa·s]
x2 = 0.0507	1412.78	1404.82	1396.73	–	–	–
x2 = 0.0927	–	–	–	0.671	0.635	0.6
x2 = 0.0992	1367.53	1359.9	1352.18	–	–	–
x2 = 0.1569	1317.05	1309.82	1302.52	–	–	–
x2 = 0.201	–	–	–	0.883	0.826	0.763
x2 = 0.2026	1279.18	1272.23	1265.25	–	–	–
x2 = 0.2558	1237.46	1230.87	1224.15	–	–	–
x2 = 0.256	–	–	–	1.017	0.949	0.875
x2 = 0.304	–	–	–	1.158	1.073	0.989
x2 = 0.3109	1196.47	1190.18	1183.85	–	–	–
x2 = 0.3618	1160.63	1154.67	1148.63	–	–	–
x2 = 0.3997	1134.97	1129.21	1123.37	–	–	–
x2 = 0.4057	–	–	–	1.535	1.397	1.28
x2 = 0.43	1115.18	1109.55	1103.85	–	–	–
x2 = 0.5098	–	–	–	2.05	1.838	1.662
x2 = 0.51	1065.33	1060.09	1054.79	–	–	–
x2 = 0.5508	–	–	–	2.307	2.046	1.839
x2 = 0.5514	1040.91	1035.82	1030.7	–	–	–
x2 = 0.6022	–	–	–	2.648	2.342	2.082
x2 = 0.6149	1005.06	1000.28	995.43	–	–	–
x2 = 0.6574	982.15	977.54	972.87	–	–	–
x2 = 0.7071	956.39	951.95	947.47	–	–	–
x2 = 0.7077	–	–	–	3.52	3.065	2.672
x2 = 0.7571	931.38	927.1	922.8	–	–	–
x2 = 0.8016	909.97	905.84	901.69	–	–	–
x2 = 0.802	–	–	–	4.51	3.865	3.333
x2 = 0.8699	–	–	–	5.313	4.537	3.89
x2 = 0.8728	877.14	873.27	869.35	–	–	–
x2 = 0.893	–	–	–	5.624	4.804	4.112
x2 = 0.9405	847.47	843.79	840.09	–	–	–
